Data: paper PMC5059921, “Chalepin: isolated from Ruta angustifolia L. Pers induces mitochondrial mediated apoptosis in lung carcinoma cells” (BMC Complementary and Alternative Medicine, 2016)
Read-outs that look alike come from different tables or passages of the source.

How the values were obtained:
washed rabbit platelets = system: washed rabbit platelets; parameters: method as in earlier work; key to effect on platelet aggregation (class symbol): A: P latelet aggregation was promoted; settings: cited from earlier work; for % inhibition of platelet aggregation, inducer AA: AA 100 /c109/c77; for % inhibition of platelet aggregation, inducer PAF: PAF 2ng/mL; for % inhibition of platelet aggregation, inducer Col: collagen 10 /c109g/mL; for % inhibition of platelet aggregation, inducer Thr: thrombin 0.1 U/mL; for antiplatelet aggregation activity (in words): at 100 /c109g/mL
Hepa: Human hepatoma = system: Hepa: Human hepatoma; parameters: method as in earlier work; settings: cited from earlier work
[1] = system: Hela: Human cervix epithelioid carcinoma; parameters: method as in earlier work; settings: cited from earlier work
[2] = system: DLD (DLD-1): Human colon adenocarcinoma; parameters: method as in earlier work; settings: cited from earlier work
A549 cell line = test: SRB in vitro cytotoxicity screening; format: cell-based, human; settings: isolated compounds
Description: (§1) The human cell lines A549 (lung cancer) and Ca Ski (cervical cancer) were cultured as monolayer in RPMI 1640 growth media whereas HCT-116 (colon cancer) and MRC5 (human normal lung fibroblasts) was cultured in McCoy’s 5A and EMEM medium, respectively. All cells were purchased from the […] (ATCC, USA). All the media were supplemented with 10 % v/v foetal bovine serum (FBS), 100 μg/mL penicillin/streptomycin, and 50 μg/mL amphotericin B. The cells were cultured in a 5 % CO2 incubator at 37 °C.
(§2) The monolayer cell culture was detached using accutase and the cell count was adjusted to 2.5 x10^5 -3.0 x10^5 cells/mL using medium containing feotal bovine serum. The cells were then plated into 96 wells with a cell density of 5000-7000 cells/well and then incubated for 24 h to allow adherence of cells to the base of well of the plates. The media was then removed and 200 μl of fresh media containing different concentration of various extracts or isolated compounds were added. Cisplatin was used as the positive control. The plates were incubated for 24, 48 and 72 h at 37 °C and 5 % CO2. The cytotoxicity of the extracts and isolated compounds were screened using the […] (SRB) assay. This assay was first described by Houghton in 2007 [8]. The incubation was halted by gentle addition of 50 μl ice cold 4 % trichloroacetic acid (TCA) to each well and the plates were incubated at 4 °C for 1 h. Then, the supernatant was discarded and the plates were washed with distilled water for 5 times and then air dried. SRB dye, 50 μl, (0.4 % w/v) was added into each well and the treated cells and control were incubated at room temperature for 30 min. The unbound dye was removed by rapid washing four times with 1 % acetic acid. The plates were then air dried and 100 μl of tris base (10 mM unbuffered, pH 10.5) was added and the plates were shaken at 500 rpm for 5 min to solublize the bound SRB stain. The plates were then read with an ELISA reader (Synergy H1 Hybrid) at an absorbance of 492 nm.

[3] = system: MRC5 (human normal lung fibroblasts); test: SRB in vitro cytotoxicity screening (toxicity to normal cells); format: cell-based; settings: isolated compounds; for IC50: 72 h, read-out: IC50 in μg/ml (μM) (MRC5) 72 h (converted)
Description: as §1, §2

[4] = Homo sapiens, MRC5, value in brackets
[5] = Homo sapiens, A549, 48 h, value in brackets, read-out: IC50 in μg/ml (μM) (A549) 48 h (converted)
[6] = Homo sapiens, A549, 48 h, read-out: IC50 in μg/ml (μM) (A549) 48 h (converted)
[7] = Homo sapiens, A549, 72 h, value in brackets, read-out: IC50 in μg/ml (μM) (A549) 72 h (converted)
[8] = Homo sapiens, A549, 72 h, read-out: IC50 in μg/ml (μM) (A549) 72 h (converted)

Molecule | antiplatelet aggregation activity (in words) (washed rabbit platelets) | ED50 Hepa (Hepa: Human hepatoma) | ED50 DLD [2] | IC50 [3, 4] [µM] | IC50 ([3]; Homo sapiens, MRC5) [µg/mL] | IC50 (A549 cell line; [5]) [µM] | IC50 (A549 cell line; [6]) [µg/mL] | IC50 (A549 cell line; [7]) [µM] | IC50 (A549 cell line; [8]) [µg/mL] | further results
COc1cc2ccc(=O)oc2cc1O [Compound 15, scopoletin] | no obvious activity | - (“-“: ED50 /c6220 /c109g/mL) | - (“-“: ED50 /c6220 /c109g/mL) | – | – | – | – | – | – | % inhibition of platelet aggregation, inducer AA (washed rabbit platelets; Conc. 100 /c109g/mL): 14.7%; % inhibition of platelet aggregation, inducer PAF (washed rabbit platelets; Conc. 100 /c109g/mL): 1.6%; % inhibition of platelet aggregation, inducer Col (washed rabbit platelets; Conc. 100 /c109g/mL): 3.4%; % inhibition of platelet aggregation, inducer Thr (washed rabbit platelets; Conc. 100 /c109g/mL): 1.5%; ED50 Hela [1]: - (“-“: ED50 /c6220 /c109g/mL)
COc1cc2nc3occc3c(OC)c2cc1OC [Kokusaginine, kokusaginine] | – | – | – | 289 | 74.8 ± 0.82 | – | – | – | – | IC50 (A549 cell line; Homo sapiens, A549, 48 h, 48 h, value in brackets, read-out: IC50 in μg/ml (μM) (A549) 48 h (converted)): 338 µM; IC50 (A549 cell line; Homo sapiens, A549, 48 h, 48 h, read-out: IC50 in μg/ml (μM) (A549) 48 h (converted)): 87.4 ± 7.08 µg/mL; IC50 (A549 cell line; Homo sapiens, A549, 72 h, 72 h, value in brackets, read-out: IC50 in μg/ml (μM) (A549) 72 h (converted)): > 386 µM; IC50 (A549 cell line; Homo sapiens, A549, 72 h, 72 h, read-out: IC50 in μg/ml (μM) (A549) 72 h (converted)): > 100 µg/mL
skimmianine [Compound 7] | – | - (“-“: ED50 /c6220 /c109g/mL) | - (“-“: ED50 /c6220 /c109g/mL) | – | – | – | – | – | – | % inhibition of platelet aggregation, inducer AA (washed rabbit platelets; Conc. 20 /c109g/mL): 5.4%; % inhibition of platelet aggregation, inducer Col (washed rabbit platelets; Conc. 20 /c109g/mL): 2.5%; % inhibition of platelet aggregation, inducer AA (washed rabbit platelets; Conc. 50 /c109g/mL): 13.1%; % inhibition of platelet aggregation, inducer Col (washed rabbit platelets; Conc. 50 /c109g/mL): 7.8%; % inhibition of platelet aggregation, inducer AA (washed rabbit platelets; Conc. 100 /c109g/mL): 81.5%; % inhibition of platelet aggregation, inducer Col (washed rabbit platelets; Conc. 100 /c109g/mL): 45.9%; ED50 Hela [1]: - (“-“: ED50 /c6220 /c109g/mL)
N.N.[Cl][Pt][Cl] [Cisplatin, reference compound] | – | – | – | – | – | – | – | – | – | IC50 in μg/ml (μM) (A549) 72 h (A549 cell line; 72 h): 24.5 ± 1.8 µg/mL; IC50 (A549 cell line; 72 h, value in brackets, read-out: IC50 in μg/ml (μM) (A549) 72 h (converted)): 81.7 µM; IC50 in μg/ml (μM) (MRC5) 72 h [3]: > 100 µg/mL; IC50 ([3]; value in brackets): > 333 µM
COc1c2ccoc2c(OC)c2oc(=O)ccc12 [Compound 11, isopimpinellin] | no obvious activity | – | – | – | – | – | – | – | – | % inhibition of platelet aggregation, inducer AA (washed rabbit platelets; Conc. 100 /c109g/mL): 30.4%; % inhibition of platelet aggregation, inducer PAF (washed rabbit platelets; Conc. 100 /c109g/mL): 4.5%; % inhibition of platelet aggregation, inducer Col (washed rabbit platelets; Conc. 100 /c109g/mL): 8.0%; % inhibition of platelet aggregation, inducer Thr (washed rabbit platelets; Conc. 100 /c109g/mL): 3.9%
Cn1c(-c2ccc3c(c2)OCO3)cc(=O)c2ccccc21 [Graveoline, graveoline] | – | – | – | 250 | 69.7 ± 2.5 | 274 | 76.3 ± 2.08 | 160 | 44.6 ± 0.47 | –
COc1cc2c(c(O)c1OC)c(=O)c1ccccc1n2C [Compound 2, arborinine] | no obvious activity | - (“-“: ED50 /c6220 /c109g/mL) | - (“-“: ED50 /c6220 /c109g/mL) | – | – | – | – | – | – | % inhibition of platelet aggregation, inducer AA (washed rabbit platelets; Conc. 50 /c109g/mL): 51.6%; % inhibition of platelet aggregation, inducer PAF (washed rabbit platelets; Conc. 50 /c109g/mL): 4.8%; % inhibition of platelet aggregation, inducer Col (washed rabbit platelets; Conc. 50 /c109g/mL): 39.1%; % inhibition of platelet aggregation, inducer Thr (washed rabbit platelets; Conc. 50 /c109g/mL): 1.1%
COc1c2ccoc2cc2oc(=O)ccc12 [Bergapten, bergapten] | – | – | – | > 463 | > 100 | > 463 | > 100 | 202 | 43.5 ± 1.81 | –
1-hydroxy-N-methylacridone [Compound 1] | no obvious activity | - (“-“: ED50 /c6220 /c109g/mL) | – | – | – | – | – | – | – | % inhibition of platelet aggregation, inducer AA (washed rabbit platelets; Conc. 20 /c109g/mL): 17.8%; % inhibition of platelet aggregation, inducer PAF (washed rabbit platelets; Conc. 20 /c109g/mL): 3.4%; % inhibition of platelet aggregation, inducer Col (washed rabbit platelets; Conc. 20 /c109g/mL): 3.7%; % inhibition of platelet aggregation, inducer Thr (washed rabbit platelets; Conc. 20 /c109g/mL): 4.3%; effect on platelet aggregation (class symbol) (washed rabbit platelets; Conc. 50 /c109g/mL, inducer column cannot be told): A
C=CC(=C)CCCC(C)CCCC(C)CCCC(C)C (stereo not drawn) [Neophytadiene, neophytadiene] | – | – | – | 278 | 77.4 ± 0.98 | 249 | 69.2 ± 1.06 | 245 | 68 ± 2.43 | –
C=CC(C)(C)c1cc2cc3c(cc2oc1=O)OC(C(C)(C)OC(C)=O)C3 (stereo not drawn) [Compound 14, rutamarin] | no obvious activity | - (“-“: ED50 /c6220 /c109g/mL) | – | – | – | – | – | – | – | % inhibition of platelet aggregation, inducer AA (washed rabbit platelets; Conc. 50 /c109g/mL): 7.6%; % inhibition of platelet aggregation, inducer PAF (washed rabbit platelets; Conc. 50 /c109g/mL): 4.5%; % inhibition of platelet aggregation, inducer Col (washed rabbit platelets; Conc. 50 /c109g/mL): 10.5%; % inhibition of platelet aggregation, inducer Thr (washed rabbit platelets; Conc. 50 /c109g/mL): 3.0%
COc1cc2nc3occc3c(OC)c2cc1OC [Compound 6, kokusaginine] | no obvious activity | - (“-“: ED50 /c6220 /c109g/mL) | - (“-“: ED50 /c6220 /c109g/mL) | – | – | – | – | – | – | % inhibition of platelet aggregation, inducer AA (washed rabbit platelets; Conc. 100 /c109g/mL): 42.2%; % inhibition of platelet aggregation, inducer PAF (washed rabbit platelets; Conc. 100 /c109g/mL): 3.5%; % inhibition of platelet aggregation, inducer Col (washed rabbit platelets; Conc. 100 /c109g/mL): 53.1%; % inhibition of platelet aggregation, inducer Thr (washed rabbit platelets; Conc. 100 /c109g/mL): 0.9%
CC(=O)CCCCc1ccc2c(c1)OCO2 [Moskachan B, moskachan B] | – | – | – | > 454 | > 100 | > 454 | > 100 | > 454 | > 100 | –
CC(=O)CCCCCCc1ccc2c(c1)OCO2 [Moskachan D, moskachan D] | – | – | – | 366 | 90.8 ± 0.8 | 312 | 77.5 ± 3 | 74.6 | 18.5 ± 0.65 | –
Cn1c(-c2ccc3c(c2)OCO3)cc(=O)c2ccccc21 [Compound 17, graveoline] | no obvious activity | - (“-“: ED50 /c6220 /c109g/mL) | - (“-“: ED50 /c6220 /c109g/mL) | – | – | – | – | – | – | % inhibition of platelet aggregation, inducer AA (washed rabbit platelets; Conc. 50 /c109g/mL): 9.5%; % inhibition of platelet aggregation, inducer PAF (washed rabbit platelets; Conc. 50 /c109g/mL): 6.2%; % inhibition of platelet aggregation, inducer Col (washed rabbit platelets; Conc. 50 /c109g/mL): 5.2%; % inhibition of platelet aggregation, inducer Thr (washed rabbit platelets; Conc. 50 /c109g/mL): 1.1%
